Entries after “also recorded” stand apart in the source; their conditions may differ.
Tests used:
Gastric MRI-H254 = test: sc xenograft, gastric tumour, mouse; assay type: in vivo; settings: for Activity (% T/C.): xenograft, mouse
Experimental: Different model systems were evaluated to provide the basis for further clinical work. Selective antitumour activities were seen against two histologically different solid tumours: human gastric and prostate carcinomas. Potent in vitro activity to primary gastric tumour specimens or Hs746T gastric tumour cells is evident with IC30 values of 146 and 450 pM, respectively. […] activities were evaluated in nude rodents using sc implanted tumour fragments or hollow fibres (HF) containing tumour cells.
Follow-up studies necessitated using rats for iv infusions. With this variation, a 24 hr iv infusion schedule produced similar activities against HF gastric (20%) and HF prostate (31%) tumour cells. Cytotoxicity was also found using a 5 day iv infusion schedule against HF prostate tumour cells (33%).

FLT-1 (VEGF-R1) = test: cDNA expression array, PCR, Western in MOLT-4 cells; assay type: cell-based, human; settings: for quantitative change in FLT-1 expression: MOLT-4, 1 h treatment
Experimental: (§1) The early changes in gene expression induced by aplidine in MOLT-4 cells were evaluated by using cDNA expression arrays (Atlas Human Cancer, Clontech). MOLT-4 cells were treated for 1 hour with concentrations of aplidine which inhibit the growth by 50% and total RNA was isolated at 0, 1, 6 and 24 hours after drug wash out. Filters were hybridised with equal amount of 32P labelled cDNA. Analysis of the results was carried out using ATLAS IMAGE 1.0 software. Changes in gene expression greater than 2 fold were taken as significant changes in RNA expression and subsequently confirmed by PCR.
as §1, with “In the present study we have evaluated the early” for “The early”, “cells” for “cells were evaluated”, “of aplidien” for “of aplidine”, “isolated t” for “isolated at”, “equal amounts” for “equal amount”, “PCR. […] Whether the down-regulation of flt-1 is involved in the cytotoxic and antitumour effect of aplidine is under investigation at the moment.” for “PCR.”
The human leukaemia cell line MOLT-4 was used for these experiments MOLT-4 cells were treated for 1 hour with 20 nM of aplidine. Total RNA was extracted at the end of treatment and 6 and 24 hours after recovery in drug-free medium.
5 μg of total RNA were retrotanscribed to cDNA in the presence of ^32P dATP. Equal amounts of radioactive probes were hybridised to Atlas Human Cancer Microarrays (Clontech). After washing, filter were exposed and the results analysed using the Atlas Image software. Only a gene expression difference greater than 2 fold between treated and untreated cells were taken into account. RT-PCR and northern analysis have been performed to confirm the changes in gene expression found with the microarrays.

AP-1 = test: gel retardation assay, transcription factor binding; assay type: biochemical; settings: nuclear extracts incubated with aplidine, 60 min
Experimental: Nuclear extracts were incubated with different aplidine concentrations and labelled oligonucleotides for 60 min. Using gel retardation assay the binding of HIF-1 or AP-1 has been monitored.

MOLT-4 cells = test: activity of aplidine on MOLT-4 cells with VEGF added; assay type: cell-based, human; settings: VEGF 10 ng/ml, 10% FCS, low concentrations of aplidine
VEGF = VEGF secretion from IGROV-1; assay type: cell-based, human
[1] = Phase I, 1 h weekly infusion x3 q4wk: toxicity and pharmacokinetics; assay type: in vivo, human; set-up: CL: unit not given here
Excerpt: Adult patients with advanced disease, PS<3, and appropriate organ function are considered eligible; patients receive aplidine wk×3/q^4 wks. 24 solid tumour patients have been entered: median (m) age 55 y, m ECOG=1, 15/24 patients treated with =>2 treatment cycles. Seven dose levels (DL) from 133 mcg/m^2/wk to 2700 mcg/m^2/wk have been assessed: 102 infusions are evaluable for toxicity (tox). […] At 2700 mcg/m^2/wk (4 pts), 1 had G3 hiperbilirrubinemia that has been considered to be dose limiting and therefore 2700 mcg/m^2/wk DL is being expanded. […] Plasma levels >1 ng/ml 24 hours after infusion are reachable form 1800 mcg/m^2/wk. […] Aplidine appears to be clinically feasible at pharmacologically appropriate dose levels.
Aplidine was administered as a 1 hour weekly×3 every four weeks

ornithine decarboxylase = molecular target: T1, ornithine decarboxylase (Homo sapiens, UniProt P11926); settings: all three cell lines; cited from earlier work
T1 construct: endogenous in cells; host or cells: CT-1, CT-2 and HT-29 colon cell lines
T1 sequence (P11926 whole entry): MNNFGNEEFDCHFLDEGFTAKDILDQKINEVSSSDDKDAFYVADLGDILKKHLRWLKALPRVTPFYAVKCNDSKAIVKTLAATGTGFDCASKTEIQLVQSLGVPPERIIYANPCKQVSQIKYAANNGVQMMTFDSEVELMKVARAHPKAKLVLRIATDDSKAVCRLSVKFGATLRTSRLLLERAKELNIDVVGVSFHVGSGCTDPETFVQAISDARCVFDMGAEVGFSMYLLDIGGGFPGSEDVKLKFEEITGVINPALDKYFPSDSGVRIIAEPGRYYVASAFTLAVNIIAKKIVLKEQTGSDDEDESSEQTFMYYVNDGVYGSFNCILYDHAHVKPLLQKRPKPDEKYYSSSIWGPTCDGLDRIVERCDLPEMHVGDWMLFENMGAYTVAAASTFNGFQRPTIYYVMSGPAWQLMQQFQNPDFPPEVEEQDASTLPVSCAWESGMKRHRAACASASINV

[2] = 3-compartment model, preliminary

aplidine
Optimal activities, xenografted gastric tumours (Gastric MRI-H254; ip administration, range over regimens): 17-20%
Activity (% T/C.) (Gastric MRI-H254; q4dx3.ip, 1.25 mg/kg): 18% T/C
Activity (% T/C.) (Gastric MRI-H254; qd9.ip, 1.05 mg/kg): 17% T/C
Activity (% T/C.) (Gastric MRI-H254; qd9.ip, 2.1 mg/kg): 19% T/C
expression of VEGF-RI/flt-1 gene, in words (FLT-1 (VEGF-R1); MOLT-4, 20 nM 1 h, at the end of treatment): decreased
levels of flt-1, in words (FLT-1 (VEGF-R1); MOLT-4, 20 nM 1 h, by 6 and 24 hours): further decreased
quantitative change in FLT-1 expression (FLT-1 (VEGF-R1); 1 Hour): −1.5 fold
quantitative change in FLT-1 expression (FLT-1 (VEGF-R1); 6 Hours): −5.0 fold
quantitative change in FLT-1 expression (FLT-1 (VEGF-R1); 24 Hours): −3.4 fold
expression of VEGF-R1 (flt-1), in words (FLT-1 (VEGF-R1); MOLT-4, RNA level by PCR, protein level by Western blotting): downregulated; also recorded: inhibits expression; also recorded: marked time-dependent reduction; also recorded: decrease in flt-1 mRNA
binding of AP-1 to consensus DNA sequence (AP-1): does not block the binding; also recorded: did not change the ability
effect of added VEGF on activity of aplidine (MOLT-4 cells): slightly reduced the activity of low concentrations of aplidine; also recorded: partially abolish the activity of aplidine
secretion of VEGF, in words (VEGF): reduce the secretion of VEGF
initial phase median half-life [1, 2]: 2.4 min
intermediate phase median half-life [1, 2]: 1.4 h
terminal phase median half-life [1, 2]: 20.7 h
Hypertension G3 (worst toxicity per patient) ([1]; 133 mcg/m^2/wk x3, 3 patients): (1)
Transaminitis G2 (worst toxicity per patient) ([1]; 133 mcg/m^2/wk x3, 3 patients): 1
Alk. Phos. G3 (worst toxicity per patient) ([1]; 266 mcg/m^2/wk x3, 3 patients): (1)
Injection site reaction G2 (worst toxicity per patient) ([1]; 266 mcg/m^2/wk x3, 3 patients): 1
Asthenia G2 (worst toxicity per patient) ([1]; 532 mcg/m^2/wk x3, 3 patients): 1
Transaminitis G3 (worst toxicity per patient) ([1]; 532 mcg/m^2/wk x3, 3 patients): (1)
Asthenia G2 (worst toxicity per patient) ([1]; 800 mcg/m^2/wk x3, 3 patients): 1(1)
Asthenia G3 (worst toxicity per patient) ([1]; 800 mcg/m^2/wk x3, 3 patients): 1(1)
CPK elevation G1 (worst toxicity per patient) ([1]; 800 mcg/m^2/wk x3, 3 patients): 1
Hypertension G1 (worst toxicity per patient) ([1]; 800 mcg/m^2/wk x3, 3 patients): 1
Injection site reaction G2 (worst toxicity per patient) ([1]; 800 mcg/m^2/wk x3, 3 patients): 1
Nausea/vomiting G2 (worst toxicity per patient) ([1]; 800 mcg/m^2/wk x3, 3 patients): 3
Transaminitis G2 (worst toxicity per patient) ([1]; 800 mcg/m^2/wk x3, 3 patients): 1
Asthenia G2 (worst toxicity per patient) ([1]; 1200 mcg/m^2/wk x3, 4 patients): 3
Injection site reaction G2 (worst toxicity per patient) ([1]; 1200 mcg/m^2/wk x3, 4 patients): 1
Myalgia G3 (worst toxicity per patient) ([1]; 1200 mcg/m^2/wk x3, 4 patients): (1)
Alk. Phos. G2 (worst toxicity per patient) ([1]; 1800 mcg/m^2/wk x3, 4 patients): 1
Asthenia G2 (worst toxicity per patient) ([1]; 1800 mcg/m^2/wk x3, 4 patients): 2
Injection site reaction G2 (worst toxicity per patient) ([1]; 1800 mcg/m^2/wk x3, 4 patients): 1
Nausea/vomiting G2 (worst toxicity per patient) ([1]; 1800 mcg/m^2/wk x3, 4 patients): 3
Transaminitis G2 (worst toxicity per patient) ([1]; 1800 mcg/m^2/wk x3, 4 patients): 1
G3 hiperbilirrubinemia (dose limiting) ([1]; 2700 mcg/m^2/wk (4 pts)): 1
Asthenia G2 (worst toxicity per patient) ([1]; 2700 mcg/m^2/wk x3, 8 patients): 1(1)
Asthenia G3 (worst toxicity per patient) ([1]; 2700 mcg/m^2/wk x3, 8 patients): 1(1)
Injection site reaction G2 (worst toxicity per patient) ([1]; 2700 mcg/m^2/wk x3, 8 patients): 3
Nausea/vomiting G2 (worst toxicity per patient) ([1]; 2700 mcg/m^2/wk x3, 8 patients): 2
Transaminitis G2 (worst toxicity per patient) ([1]; 2700 mcg/m^2/wk x3, 8 patients): 1
Bilirrubin G3 (worst toxicity per patient) ([1]; 2700 mcg/m^2/wk x3, 8 patients, footnote DLT): 1(1)^(2)
CPK elevation G1 (worst toxicity per patient) ([1]; 3600 mcg/m^2/wk x3, 2 patients): 1
clinically feasible dose ([1]; 1 hour infusion weekly with one week rest): ≤ 3600 mcg/m^2 every week
haematological tox ([1]; Example 13, 102 infusions): No haematological tox
CL ([1]; Example 13, median): 0.60
m Vss ([1]; Example 13, median): 308 L/m^2
m elimination half life ([1]; Example 13, median): 14.2 h
Bone marrow toxicity ([1]; Example 17): has not been reported
coefficient of variation of CL ([1]; Example 17, interpatient): 33%
Vss ([1]; Example 17, median (quartiles)): 345 (220-398) L/m^2
t ½ ([1]; Example 17, median (quartiles)): 15.8 (13.3-19.5) h
plasma CL ([1]; Example 17, median, quartiles 288-407): 329 mL/min/m^2
dose from which potentially therapeutic plasma levels are achievable ([1]; in vivo): ≥ 1200 μg/m^2
Plasma levels 24 hours after infusion ([1]; reachable from 1800 mcg/m^2/wk): > 1 ng/mL
ornithine decarboxylase activity (ornithine decarboxylase): decreased ornithine decarboxylase activity
